{
  "source": "patent US9364426B2",
  "about": "“Method of making coated microstructures” (Georgia Tech Research Corporation, priority 2005, dated 2016)",
  "key": {"[1]": {"conditions": "cited from earlier work"}, "[2]": {"experiment": "In vitro dissolution of microneedle coating in pig cadaver skin", "type": "in vitro ADME", "conditions": "single microneedles n=3", "from_the_text": "To assess the in vitro dissolution time, single microneedles (n=3) coated with vitamin B, calcein, or sulforhodamine, made as in Example 1, were inserted into pig cadaver skin for 10 s or 20 s. Upon removal, these microneedles were imaged by fluorescence microscopy to detect residual coating."}, "[3]": {"conditions": "coated onto microneedles; six months storage under nitrogen at room temperature; cited from earlier work"}, "[4]": {"experiment": "Delivery from individual coated microneedles in vitro into pig cadaver skin", "type": "in vitro ADME", "conditions": "20 s insertion into pig cadaver skin", "protocol": "After removing the microneedles, fluorescence micrographs of coated microneedles and histological skin sections were collected using an Olympus IX70 fluorescent microscope with a CCD camera (RT Slider, Diagnostic Instruments). Brightfield micrographs were collected using an Olympus SZX12 stereomicroscope with a CCD camera (Leica DC 300, Leica Microsystems, Bannockburn, Ill., USA). Histological examination of pig cadaver skin was conducted on frozen sections. Pig cadaver skin was pierced with microneedles for 20 s, frozen in OCT compound (Tissue-Tek, 4583, Sakura Finetek, Torrance, Calif., USA), and cut into 10 μm-thick sections using a cryostat (Cryo-Star HM 560MV, Microm, Waldorf, Germany)."}, "guinea pigs": {"test_system": "guinea pigs", "conditions": "model antigen delivered from coated microneedles; cited from earlier work"}, "[5]": {"conditions": "10 s insertion into pig cadaver skin"}, "[6]": {"conditions": "20 s insertion into pig cadaver skin"}},
  "data": [
    {"molecule": "COc1cc(/C=C/C(=O)CC(=O)/C=C/c2ccc(O)c(OC)c2)ccc1O", "note": "[curcumin]", "values": [
      {"measurement": "solubility in water", "setting": "[1]", "value": "negligible"}
    ]},
    {"molecule": "sulforhodamine", "values": [
      {"measurement": "dissolution of microneedle coating (residual coating by fluorescence microscopy)", "setting": "[2]; [5]", "value": "majority of the coating was dissolved"},
      {"measurement": "dissolution of microneedle coating (residual coating by fluorescence microscopy)", "setting": "[2]; [6]", "value": "completely dissolved"}
    ]},
    {"molecule": "NC(=O)CC[C@@H]1NC(=O)[C@H](Cc2ccccc2)NC(=O)[C@H](Cc2ccc(O)cc2)NC(=O)CCSSC[C@@H](C(=O)N2CCC[C@H]2C(=O)N[C@H](CCCN=C(N)N)C(=O)NCC(N)=O)NC(=O)[C@H](CC(N)=O)NC1=O", "note": "[desmopressin]", "values": [
      {"measurement": "integrity after storage", "setting": "[3]", "value": 98, "unit": "%"}
    ]},
    {"molecule": "O=C(O)CN(CC(=O)O)Cc1cc2c(cc1O)Oc1cc(O)c(CN(CC(=O)O)CC(=O)O)cc1C21OC(=O)c2ccccc21", "note": "[calcein]", "values": [
      {"measurement": "distribution in skin, histology sections", "setting": "[4]", "value": "distribution of calcein along the periphery of the insertion point"},
      {"measurement": "residue on the skin after insertion", "setting": "[4]", "value": "No residue was observed"},
      {"measurement": "dissolution of microneedle coating (residual coating by fluorescence microscopy)", "setting": "[2]; [5]", "value": "majority of the coating was dissolved"},
      {"measurement": "dissolution of microneedle coating (residual coating by fluorescence microscopy)", "setting": "[2]; [6]", "value": "completely dissolved"}
    ]},
    {"molecule": "ovalbumin (protein, UniProt P01012 2-386, looked up, model ovalbumin antigen delivered from coated microneedles) Ovalbumin: GSIGAASMEFCFDVFKELKVHHANENIFYCPIAIMSALAMVYLGAKDSTRTQINKVVRFDKLPGFGDSIEAQCGTSVNVHSSLRDILNQITKPNDVYSFSLASRLYAEERYPILPEYLQCVKELYRGGLEPINFQTAADQARELINSWVESQTNGIIRNVLQPSSVDSQTAMVLVNAIVFKGLWEKAFKDEDTQAMPFRVTEQESKPVQMMYQIGLFRVASMASEKMKILELPFASGTMSMLVLLPDEVSGLEQLESIINFEKLTEWTSSNVMEERKIKVYLPRMKMEEKYNLTSVLMAMGITDVFSSSANLSGISSAESLKISQAVHAAHAEINEAGREVVGSAEAGVDAASVSEEFRADHPFLFCIKHIATNAVLFFGRCVSP", "values": [
      {"measurement": "immune response", "setting": "guinea pigs", "value": "strong immune response"}
    ]}
  ]
}
